From patent publication US9856279B2 (AGIOS PHARMACEUTICALS, INC, priority 2011, dated 2018)
Like-named read-outs stand apart in the source and are kept apart here.

Key:
IDH1 R132H = IDH1 R132H (Homo sapiens, UniProt O75874, R132H); assay: Assay for IDH1 R132H inhibitors (NADPH/aKG, resazurin detection); type: biochemical
Method in brief: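 Read-out is resorufin fluorescence (Ex544/Em590) 5 min after adding a 30 μM resazurin detection mix. Before that, mutant enzyme (0.2 μg/ml in its mix) ran 50 min at room temperature with compound, 8 uM NADPH and 2 mM aKG (mix levels) in Tris pH 7.5 with NaCl, MgCl2, BSA.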

HT1080 cells = assay: Cellular assay for IDH1m inhibitors: inhibition of 2-HG production (LC-MS, 48 hours) in HT1080 cells; type: cell-based; details: Homo sapiens, HT-1080; inhibition of 2-HG production, HT1080 cells; read-out: HT1080 IC50
Experimental: Cells (e.g., HT1080 or U87MG) and are grown in T125 flasks in DMEM containing 10% FBS, 1× penicillin/streptomycin and 500 ug/mL G418. They are harvested by trypsin and seeded into 96 well white bottom plates at a density of 5000 cell/well in 100 ul/well in DMEM with 10% FBS. No cells are plates in columns 1 and 12. Cells are incubated overnight at 37° C. in 5% CO2. The next day compounds are made up at 2× concentration and 100 ul are added to each cell well. The final concentration of DMSO is 0.2% and the DMSO control wells are plated in row G. The plates are then placed in the incubator for 48 hours. At 48 hours, 100 μl of media is removed from each well and analyzed by LC-MS for 2-HG concentrations. The cell plate is placed back in the incubator for another 24 hours. At 72 hours post compound addition, 10 mL/plate of Promega Cell Titer Glo reagent is thawed and mixed. The cell plate is removed from the incubator and allowed to equilibrate to room temperature. Then 100 ul of reagent is added to each well of media. The cell plate is then placed on an orbital shaker for 10 minutes and then allowed to sit at room temperature for 20 minutes. The plate is then read for luminescence with an integration time of 500 ms.
The IC50 for inhibition of 2-HG production (concentration of test compound to reduce 2HG production by 50% compared to control) in these two cell lines for various compounds of formula I is set forth in Table 4 above.

[1] = enzyme assay of Example 12, read-out: IDH1R132H IC50
[2] = Table 3, enzyme assay, 50 minutes at room temperature, read-out: IC50 (IDH1 R132H Inhibition)

Sequence of IDH1 R132H (O75874 whole entry R132H): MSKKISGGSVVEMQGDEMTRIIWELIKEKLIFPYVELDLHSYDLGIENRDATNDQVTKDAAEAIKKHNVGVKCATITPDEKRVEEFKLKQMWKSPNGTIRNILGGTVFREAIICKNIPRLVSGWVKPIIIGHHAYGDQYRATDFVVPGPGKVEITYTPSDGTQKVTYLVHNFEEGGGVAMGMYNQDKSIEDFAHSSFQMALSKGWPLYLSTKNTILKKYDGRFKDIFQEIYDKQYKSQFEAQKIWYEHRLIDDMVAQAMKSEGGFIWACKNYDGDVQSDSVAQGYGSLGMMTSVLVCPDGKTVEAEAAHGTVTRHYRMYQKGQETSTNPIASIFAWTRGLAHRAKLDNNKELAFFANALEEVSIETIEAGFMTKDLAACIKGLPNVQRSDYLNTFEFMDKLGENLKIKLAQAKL

Row | Compound | IC50 (IDH1 R132H; [1]) [µM] | IC50 (HT1080 cells) [µM] | IC50 (IDH1 R132H; [2]) [µM]
1 | N#Cc1cc(-c2cccc3cnc(Cl)cc23)c(C2CC2)nc1N1CCN(C(=O)C2CC2)[C@H](C2CC2)C1 [Compound 555, (R)-5-(3-chloroisoquinolin-5-yl)-2-(4-(cyclopropanecarbonyl)-3-cyclopropylpiperazin-1-yl)-6-cyclopropylnicotinonitrile] | < 0.5 | 0.5 to 1 | 
2 | CCO[C@@H]1C[C@@H]1C(=O)N1CCN(c2nc(C3CC3)c(-c3cccc4cnccc34)cc2C#N)C[C@H]1C [Compound 517, 6-cyclopropyl-2-((R)-4-((1S,2R)-2-ethoxycyclopropanecarbonyl)-3-methylpiperazin-1-yl)-5-(isoquinolin-5-yl)nicotinonitrile] | < 0.5 | 0.5 to 1 | 
3 | C=Cc1ccc2c(-c3cc(C#N)c(N4CCN(C(=O)CCOC)[C@H](C5CC5)C4)nc3C3CC3)cccc2n1 [Compound 570, (R)-6-cyclopropyl-2-(3-cyclopropyl-4-(3-methoxypropanoyl)piperazin-1-yl)-5-(2-vinylquinolin-5-yl)nicotinonitrile] | < 0.5 | < 0.5 | 
4 | C=Cc1cc(-c2cc(C#N)c(N3CCN(C(=O)CCO)C(C)C3)nc2C2CC2)ccn1 (stereo not drawn) [Compound 572] | < 0.5 | < 0.5 | 
5 | C=Cc1cc(-c2cc(C#N)c(N3CCN(C(=O)CCO)[C@H](C4CC4)C3)nc2C2CC2)c2cccnc2n1 [Compound 655, (R)-6-cyclopropyl-2-(3-cyclopropyl-4-(3-hydroxypropanoyl)piperazin-1-yl)-5-(2-vinyl-1,8-naphthyridin-4-yl)nicotinonitrile] | < 0.5 | < 0.5 | 
6 | N#Cc1ccnc(Nc2cc(C#N)c(N3CCN(C(=O)C[C@H]4CCO4)[C@H](C4CC4)C3)nc2C2CC2)n1 [Compound 808, 2-(5-cyano-2-cyclopropyl-6-((R)-3-cyclopropyl-4-(2-((R)-oxetan-2-yl)acetyl)piperazin-1-yl)pyridin-3-ylamino)pyrimidine-4-carbonitrile] | < 0.5 | < 0.5 | 
7 | C[C@@H]1CN(c2nc(C3CC3)c(-c3cccc4ncoc34)cc2C#N)CCN1C(=O)C1CC1 [Compound 482, (R)-5-(benzo[d]oxazol-7-yl)-2-(4-(cyclopropanecarbonyl)-3-methylpiperazin-1-yl)-6-cyclopropylnicotinonitrile] | < 0.5 |  | 
8 | COCCC(=O)N1CCN(c2nc(C(C)C)c(-c3ccc4ccccc4c3)cc2C#N)C[C@H]1C [Compound 211, (R)-6-isopropyl-2-(4-(3-methoxypropanoyl)-3-methylpiperazin-1-yl)-5-(naphthalen-2-yl)nicotinonitrile] |  |  | 1 to 5
9 | CN(C)c1nccc(-c2cc(C#N)c(N3CCN(C(=O)C4CC4)[C@H](C4CC4)C3)nc2C2CC2)n1 [Compound 506, (R)-2-(4-(cyclopropanecarbonyl)-3-cyclopropylpiperazin-1-yl)-6-cyclopropyl-5-(2-(dimethylamino)pyrimidin-4-yl)nicotinonitrile] | 0.5 to 1 |  | 
10 | C=Cc1cc(-c2c(C3CC3)nc(N3CCN(C(=O)CCC4CCC4)[C@H](C4CC4)C3)c(C#N)c2C)ccn1 [Compound 826, (R)-6-(4-(3-cyclobutylpropanoyl)-3-cyclopropylpiperazin-1-yl)-2-cyclopropyl-4-methyl-2′-vinyl-3,4′-bipyridine-5-carbonitrile] | < 0.5 |  | 
11 | C[C@@H]1CN(c2nc(C3CC3)c(Oc3ccnc(Cl)c3)cc2C#N)CCN1C(=O)CCO [Compound 704, (R)-5-((2-chloropyridin-4-yl)oxy)-6-cyclopropyl-2-(4-(3-hydroxypropanoyl)-3-methylpiperazin-1-yl)nicotinonitrile] | < 0.5 |  | 
12 | CNS(=O)(=O)c1ccc(-c2c(C3CC3)nc(N3CCN(C(=O)CCOC)[C@H](C)C3)c(C#N)c2C)cc1 [Compound 331, (R)-4-{5-cyano-2-cyclopropyl-6-[4-(3-methoxy-propionyl)-3-methyl-piperazin-1-yl]-4-methyl-pyridin-3-yl}-N-methyl-benzenesulfonamide] | < 0.5 |  | 

Further lines, results first:

Row | IC50 (IDH1 R132H; [1]) [µM] | IC50 (HT1080 cells) [µM] | IC50 (IDH1 R132H; [2]) [µM] | Compound
13 | < 0.5 | < 0.5 |  | N#Cc1ccc2c(-c3cc(C#N)c(N4CCN(C(=O)CC(F)(F)F)[C@H](C5CC5)C4)nc3C3CC3)cccc2n1 [Compound 535, (R)-5-(5-cyano-2-cyclopropyl-6-(3-cyclopropyl-4-(3,3,3-trifluoropropanoyl)piperazin-1-yl)pyridin-3-yl)quinoline-2-carbonitrile]
14 | < 0.5 | < 0.5 |  | C=Cc1cc(Cc2cc(C#N)c(N3CCN(C(=O)C4CC4)[C@H](C4CC4)C3)nc2C2CC2)ccn1 [Compound 684, (R)-2-(4-(cyclopropanecarbonyl)-3-cyclopropylpiperazin-1-yl)-6-cyclopropyl-5-((2-vinylpyridin-4-yl)methyl)nicotinonitrile]
15 | 0.5 to 1 | 1 to 10 |  | C=Cc1cc(-c2cc(C#N)c(N3CCN(C(=O)CCOC)[C@H](C)C3)nc2C2CC2)cc(C#N)n1 [Compound 672, (R)-2-cyclopropyl-6-(4-(3-methoxypropanoyl)-3-methylpiperazin-1-yl)-6′-vinyl-[3,4′-bipyridine]-2′,5-dicarbonitrile]
16 | < 0.5 | < 0.5 |  | C=CC(=O)N1CCC=C(c2cc(C#N)c(N3CCN(C(=O)C4CC4)[C@H](C)C3)nc2C2CC2)C1 [Compound 575, (R)-5-(1-acryloyl-1,2,5,6-tetrahydropyridin-3-yl)-2-(4-(cyclopropanecarbonyl)-3-methylpiperazin-1-yl)-6-cyclopropylnicotinonitrile]
17 | < 0.5 | < 0.5 |  | N#Cc1cc(Nc2ccnc(Cl)c2)c(C2CC2)nc1N1CCN(C(=O)CCO)[C@H](C2CC2)C1 [Compound 677, (R)-5-((2-chloropyridin-4-yl)amino)-6-cyclopropyl-2-(3-cyclopropyl-4-(3-hydroxypropanoyl)piperazin-1-yl)nicotinonitrile]
18 | < 0.5 | < 0.5 |  | N#Cc1ccnc(Nc2cc(C#N)c(N3CCN(C(=O)C[C@H]4CCO4)[C@H](C4CC4)C3)nc2C2CC2)c1 [Compound 809, 5-(4-cyanopyridin-2-ylamino)-6-cyclopropyl-2-((R)-3-cyclopropyl-4-(2-((R)-oxetan-2-yl)acetyl)piperazin-1-yl)nicotinonitrile]
19 | < 0.5 | 0.5 to 1 |  | N#Cc1cc(-c2cccc3c(C#N)nccc23)c(C2CC2)nc1N1CCN(C(=O)C2CC2)[C@H](C2CC2)C1 [Compound 511, (R)-5-(5-cyano-6-(4-(cyclopropanecarbonyl)-3-cyclopropylpiperazin-1-yl)-2-cyclopropylpyridin-3-yl)isoquinoline-1-carbonitrile]
20 | < 0.5 | < 0.5 |  | C=Cc1cc(-c2cc(C#N)c(N3CCN(C(=O)CCC(OC)OC)[C@H](C)C3)nc2C2CC2)ccn1 [Compound 606, (R)-2-cyclopropyl-6-(4-(4,4-dimethoxybutanoyl)-3-methylpiperazin-1-yl)-2′-vinyl-[3,4′-bipyridine]-5-carbonitrile]
21 | < 0.5 | 1 to 10 |  | N#Cc1cc(Nc2ccnc3ccccc23)c(C2CC2)nc1N1CCN(C(=O)CC(F)(F)F)[C@H](C2CC2)C1 [Compound 560, (R)-6-cyclopropyl-2-(3-cyclopropyl-4-(3,3,3-trifluoropropanoyl)piperazin-1-yl)-5-(quinolin-4-ylamino)nicotinonitrile]
22 | < 0.5 | < 0.5 |  | C=Cc1cc(-c2cc(C#N)c(N3CCN(C(=O)CN4CCC4=O)[C@H](C4CC4)C3)nc2C2CC2)ccn1 [Compound 818]
23 |  |  | 1 to 5 | CC(C)c1nc(N2CCN(C(=O)c3ccoc3)[C@H](C)C2)c(C#N)cc1-c1ccccc1 [Compound 150, (R)-2-(4-(furan-3-carbonyl)-3-methylpiperazin-1-yl)-6-isopropyl-5-phenylnicotinonitrile]
24 |  |  | 1 to 5 | Cc1ccc(-c2cc(C#N)c(N3CCN(C(=O)c4ccoc4)[C@H](C)C3)nc2C(C)C)cc1 [Compound 179, (R)-2-(4-(furan-3-carbonyl)-3-methylpiperazin-1-yl)-6-isopropyl-5-p-tolylnicotinonitrile]
25 | < 0.5 |  |  | N#Cc1cc(-c2cccnc2)c(C2CC2)nc1N1CCN(C(=O)CC(F)(F)F)[C@H](C2CC2)C1 [Compound 524, (R)-2-cyclopropyl-6-(3-cyclopropyl-4-(3,3,3-trifluoropropanoyl)piperazin-1-yl)-[3,3′-bipyridine]-5-carbonitrile]
26 | < 0.5 |  |  | N#Cc1cc(-c2cccc3nccnc23)c(C2CC2)nc1N1CCN(C(=O)C2CC2)[C@H](C2CC2)C1 [Compound 531, (R)-2-(4-(cyclopropanecarbonyl)-3-cyclopropylpiperazin-1-yl)-6-cyclopropyl-5-(quinoxalin-5-yl)nicotinonitrile]
